# Patent US20120107916A1, “METHODS AND COMPOSITIONS FOR AFFECTING THE DIFFERENTIATION OF CLOSTRIDIA IN CULTURE” (priority 2009, published 2012)
# Columns and labels:
# [1] = system: C. beijerinckii NCIMB 8052; assay: Ceric ion reactive compounds (total alcohols) in culture broths, colorimetric ceric ammonium nitrate assay; format: cell-based, Clostridium beijerinckii; details: 50 nM peptide; for Optical density of ceric ion reactive compounds measured at 500 nm: transfer 3, 96 h, 30° C.
# Procedure: (§1) Bacterial strains and media. Clostridium acetobutylicum ATCC 824 and C. beijerinckii NCIMB 8052 are available from several commercial microbial culture collections including the American Type Culture Collection (ATCC), Manassas, Va., USA. The strains were grown at 30° C. or 37° C. in YE broth, which contained, per liter: 5.0 g yeast extract, 2.5 g casamino acids, 1.0 g L-asparagine, 0.5 g cysteine.HCl, 56 mg K2HPO4, 56 mg KH2PO4, 82 mg anhydrous MgSO4, 8 mg FeSO4.H2O, 6 mg MnSO4.H2O and 10 g glucose. Alternatively, strains were grown in YEPG broth, which was identical to YE expect that K2HPO4 and KH2PO4 were increased to 145 mg/L each and glucose was increased to 60 g/L. The pH of the media was adjusted to 7.2 using 45% KOH prior to sterilization by autoclaving. Media were solidified by addition of 1.5% Bacteriological Agar, Actimedia Manufacturers, Inc., Lansing, Mich. All cultures were grown in anaerobic conditions using the AnaeroPack System, Mitsubishi Gas Chemical Co., Inc., Japan, and GasPak EZ Gas Generating Sachets, Becton, Dickinson and Co., Sparks, Md. Spore stocks were kept at room temperature on agar-solidified media and were activated by suspending spores in 0.5 mL to 1.0 mL of medium followed by heating for 10 min at 80° C. before inoculation into growth medium.
# Analysis of solvents. Total alcohols in cell-free culture supernatants were measured using a modification of a colorimetric method based on ceric ammonium nitrate (Reid and Truelove, 1952). […] The sample was mixed by inverting the cuvette six times then exactly two minutes later the optical density at 500 nm wavelength was measured. The concentration of total alcohols was determined by comparison with a standard curve prepared by using butanol diluted in distilled water.
# Effect of peptide SEQ ID NO:145 addition on sequential batch cultures of C. beijerinckii NCIMB 8052 grown at 30° C. […] Each culture was stopped after 96 hours of incubation and optical density, pH and ceric ion reactive chemicals were measured. […]
# [2] = system: C. beijerinckii NCIMB 8052; assay: Final pH of cell-free culture supernatants of sequential batch cultures; format: cell-based, Clostridium beijerinckii
# Procedure: as §1
# Growth and pH measurements. Growth of bacterial cultures was measured spectrophotometrically using optical density at 600 nm and pH of cell-free culture supernatants was measured using a hand-held Shindengen ISFET pH Meter KS501, Shendengen Electric Manufacturing Co., Ltd., Bannockburn, Ill.
# Effect of peptide SEQ ID NO:145 addition on sequential batch cultures of C. beijerinckii NCIMB 8052 grown at 30° C. Spores of C. beijerinckii NCIMB 8052 were germinated and grown overnight at 30° C. under anaerobic conditions in YEPG medium. After about 24 h of growth, […] of the culture was transferred (transfer 1) to each of four flasks that contained 10 mL of YEPG and either had no treatment or were treated with peptide SEQ ID NO:145 (see Table 8) at 1 nM, 10 nM or 50 nM. Thereafter, 75 μL of each culture was transferred, at the same time, every 24-48 h to 10 mL of fresh YEPG that contained the same peptide treatment or no treatment. Each culture was stopped after 96 hours of incubation and optical density, pH and ceric ion reactive chemicals were measured. Sequential batch culturing was continued through 6 transfers at which point all cultures appeared to be growing to the same extent (Table 12 and FIG. 4).
# Effect of peptide SEQ ID NO:145 addition on sequential batch cultures of C. beijerinckii NCIMB 8052 grown at 37° C. Spores of C. beijerinckii NCIMB 8052 were germinated and grown overnight at 37° C. under anaerobic conditions in YEPG medium that either contained 50 nM of peptide SEQ ID NO:145 or no added peptide. After about 24 h of growth, 10 μL of the untreated culture was transferred (transfer 1) to each of two flasks that contained 10 mL of YEPG with either no treatment or with 50 nM peptide SEQ ID NO:145. At the same time, 10 μL of the culture that was germinated in the presence of peptide SEQ ID NO:145 was also transferred to 10 mL of YEPG that contained 50 nM of peptide SEQ ID NO:145. Thereafter, 10 μL of each culture was transferred, at the same time, every 24-48 h to 10 mL of fresh YEPG that contained the same peptide treatment or no treatment. Each culture was stopped after 72 hours of incubation and optical density, pH and ceric ion reactive chemicals were measured. Addition of peptide SEQ ID NO:145 appeared to have no effect on endpoint measurements of the growth of C. beijerinckii NCIMB 8052 after germination or during sequential transfers of cultures at 37° C. (Table 18 and FIG. 10). All three cultures stopped growing at the second transfer.
substance,measurement,setting,value
"IRLIT (Derived from Clostridium beijerinckii SEQ ID NO: 141) [Peptide SEQ ID NO:145, pentapeptide from C. beijerinckii NCIMB 8052 locus Cbei_1065; chemically synthesized putative autoinducing peptide]",Effect on endpoint measurements of ceric ion reactive compounds,[1]; 37° C.,no apparent effect
same,Optical density of ceric ion reactive compounds measured at 500 nm,[1]; listed as SEQ ID NO: 145,−0.002
same,Optical density of ceric ion reactive compounds measured at 500 nm,[1]; listed as SEQ ID NO:145,no ceric ion reactive compounds
same,Final pH of culture broths,"[2]; 1 nM peptide, transfer 1, 96 h, 30° C.",5.3
same,Final pH of culture broths,"[2]; 1 nM peptide, transfer 2, 96 h, 30° C.",5.3
same,Final pH of culture broths,"[2]; 1 nM peptide, transfer 3, 96 h, 30° C.",5.1
same,Final pH of culture broths,"[2]; 1 nM peptide, transfer 4, 96 h, 30° C.",5.3
same,Final pH of culture broths,"[2]; 1 nM peptide, transfer 5, 96 h, 30° C.",5.3
same,Final pH of culture broths,"[2]; 1 nM peptide, transfer 6, 96 h, 30° C.",5.3
same,Final pH of culture broths,"[2]; 10 nM peptide, transfer 1, 96 h, 30° C.",5.3
same,Final pH of culture broths,"[2]; 10 nM peptide, transfer 2, 96 h, 30° C.",5.3
same,Final pH of culture broths,"[2]; 10 nM peptide, transfer 3, 96 h, 30° C.",5.0
same,Final pH of culture broths,"[2]; 10 nM peptide, transfer 4, 96 h, 30° C.",5.3
same,Final pH of culture broths,"[2]; 10 nM peptide, transfer 5, 96 h, 30° C.",5.4
same,Final pH of culture broths,"[2]; 10 nM peptide, transfer 6, 96 h, 30° C.",5.3
same,Final pH of culture broths,"[2]; 50 nM peptide added after germination, transfer 1, 72 h, 37° C.",4.1
same,Final pH of culture broths,"[2]; 50 nM peptide added after germination, transfer 2, 72 h, 37° C.",6.5
same,Effect on endpoint measurements of pH,"[2]; 50 nM peptide, 37° C.",no apparent effect
same,Final pH of culture broths,"[2]; 50 nM peptide, transfer 1, 96 h, 30° C.",5.4
same,Final pH of culture broths,"[2]; 50 nM peptide, transfer 2, 96 h, 30° C.",5.3
same,Final pH of culture broths,"[2]; 50 nM peptide, transfer 3, 96 h, 30° C.",5.2
same,Final pH of culture broths,"[2]; 50 nM peptide, transfer 4, 96 h, 30° C.",5.3
same,Final pH of culture broths,"[2]; 50 nM peptide, transfer 5, 96 h, 30° C.",5.3
same,Final pH of culture broths,"[2]; 50 nM peptide, transfer 6, 96 h, 30° C.",5.3
same,Final pH of culture broths,"[2]; 50-50: germinated and transferred in 50 nM peptide, transfer 1, 72 h, 37° C.",4.1
same,Final pH of culture broths,"[2]; 50-50: germinated and transferred in 50 nM peptide, transfer 2, 72 h, 37° C.",6.6
same,Final pH of culture broths,"[2]; 50-50: spores germinated in 50 nM peptide, transfer 0 (germinated culture), 72 h, 37° C.",4.1
